In paper PMC7906907, “Targeting STAT3 by a small molecule suppresses pancreatic cancer progression” (Oncogene, 2021):

How the values were obtained:
Format in all cases: cell-based
STAT3 = assay: STAT3-response dual luciferase reporter assay
Method: Fig. 1 N4 inhibits STAT3 dimerization and transcription in vitro. A Purified STAT3 protein was incubated with labeled phosphopeptide, 5-carboxyfluorescein-GpYLPQTV-NH2 for 1 h at 37 °C. FP signals were measured, and the data were analyzed using Graph Pad 7.0 software. B Chemical structure of N4. C Different concentrations of N4 were pre-incubated with recombined STAT3 protein for 1 h, then 10 nM of labeled peptide was added for 1 h. The IC50 was calculated using Graph Pad 7.0. D, E, F STAT3 specific luciferase reporter plasmid was transiently transfected into 293T cells. After 24 h transfection, IL-6 (20 ng/mL), OSM (10 ng/mL), and V-SRC expression plasmid (200 ng) was used to activate STAT3 luciferase activity, N4 was added at the indicated concentrations. Renilla luciferase activities were used as an internal reference (n = 2 per group). The values are expressed as mean ± SD and the bars indicate statistically significant differences (t test), *P < 0.05; **P < 0.01; ***P < 0.001.
Dual luciferase assay was performed as previously described. […] Renilla and firefly luciferase activities were determined by luminometry using the Dual Luciferase Reporter Assay System (Promega). The ratio was calculated.
Supplementary Figure 5. […] The values are expressed as mean ± SD and the bars indicate statistically significant differences (t-test), *P < 0.05; **P < 0.01; ***P < 0.001. […]

normal cells (HPNE, HAF) = assay: MTS proliferation assay, normal cells; settings: 48 h
Method: Fig. 4 N4 suppresses pancreatic cancer cell proliferation and migration and induces apoptosis. A Pancreatic cancer cells (CAPAN-2, PANC-1, MIAPACA-2, BXPC-3, HPAC, and CFPAC-1) and normal cells (HPNE, HAF) were incubated with the indicated concentration of N4 for 48 h. MTS assays were performed to detect the N4-mediated inhibition of cell proliferation. Data are shown as mean ± SD, *P < 0.05, **P < 0.01, ***P < 0.001, ****P < 0.0001, n.s. not significant by one-way ANOVA followed by multiple comparisons. B, C CAPAN-2, PANC-1, and MIAPACA-2 cells were treated with N4 (B) or C188-9 (C) for 7 days. The cells fixed and stained, and colony numbers were calculated. Experiments were carried out in triplicate with identical results obtained. […] Apoptotic cells were analyzed as described in Materials and Methods. […] In F, after 48 h transfection, transfected cells were seeded in 96-well plates, and cells were enumerated at day 1, day 2, and day 4, In G, different cells transfected with different siRNA were treated with the indicated concentrations of N4, and cell viability measured after a 48 h treatment. Data are expressed as mean ± SD, *P < 0.05, ***P < 0.001, n.s. not significant by one-way ANOVA followed by multiple comparisons. […] Data are expressed as mean ± SD, *P < 0.05, ***P < 0.001, n.s. not significant; Student’s t tests were performed. […]

Pancreatic cancer cells = assay: Trans-well migration
Method: independent assays; *P < 0.05, **P < 0.01, ***P < 0.001, ****p < 0.0001 by one-way ANOVA followed by multiple comparisons. (C) Pancreatic cancer cells were seeded in the top chamber of Trans-well inserts and treated with N4 the following day. The lower chamber was fixed, stained, and photographed. Experiments were carried out in triplicate with identical results obtained. Data shown as mean ± SD; **P < 0.01, ****p < 0.0001 by Student’s t-tests. Scale bar, 100 μm.

SMILES: COc1cc2c(cc1C(=O)Nc1cccc3cccnc13)CCC1C(C)(C)C(=O)C(C#N)=C[C@]21C (stereo partly shown) [N4]
- STAT3-dependent luciferase reporter activity (STAT3; 293T cells, IL-6, OSM or V-SRC induced): suppressed
- STAT3-response luciferase activities (STAT3; PANC-1 and BXPC-3 cells, with or without IL-6 stimulation): efficiently inhibited
- effect on two normal cell types (normal cells (HPNE, HAF)): no significant effect
- pancreatic cancer migration (Pancreatic cancer cells): efficiently blocked
